Reference: patent US10849861B2, “Pharmaceutical compound for treating colorectal cancer” (Everest Pharm. Industrial Co., LTD., priority 2018, dated 2020)

Key:
[1] = system: human colorectal cancer cell line HCT-116; experiment: Cell viability by MTT assay, HCT-116; assay type: cell-based
Text: (§1) The cell line HCT-116 is an adult colorectal cancer cell, and its cells are TGF-β1 and TGF-β2, which are the targeted cells commonly used in preclinical colorectal cancer; the cell line DLD-1 is a […] human colorectal cancer. The cells, which are cancer cells that have invaded the lymph nodes in the late stage, have rapid metastatic growth and are also the targeted cells commonly used in preclinical studies of colorectal cancer; the cell line MCF-7 is an adult […] mastocarcinoma cell with Tx-4 oncogene, which is a targeted cell commonly used in preclinical studies of mastocarcinoma. The cell line A549 is an adult […] lung cancer cell, and its cell characteristic is the ability to synthesize lecithin. Pre-clinical studies of targeted cells are commonly used in lung cancer; cell line EG7 is a lymphoma cell, and its cells with antigen OVA are the targeted cells commonly used in cancer immunotherapy for preclinical studies; cell line L929 is fibroblast, which is the specified cell for preclinical studies of the cytotoxicity standard assay.
(§2) Cell Viability by MTT Assay […]
(§3) 4) The culture solution is extracted, and DMSO is added to dissolve the purple crystals, and the light absorption value is measured at a wavelength of 570 nm.
(§4) 5) The cell survival rate and IC50 of the drug are calculated by comparing the values of the control group with the light absorption values of different groups.

[2] = system: human colorectal cancer cell line DLD-1; experiment: Cell viability by MTT assay, DLD-1; assay type: cell-based; conditions: DLD-1 colorectal cancer cells, 24 hours with drug
Text: as §1, §2, §3, §4

[3] = system: human breast cancer cell line MCF-7; experiment: Cell viability by MTT assay, MCF-7; assay type: cell-based; conditions: MCF7, MCF-7 breast cancer cells, 24 hours with drug
Text: as §1, §2, §3, §4

[4] = system: human lung cancer cell line A549; experiment: Cell viability by MTT assay, A549; assay type: cell-based; conditions: A549 lung cancer cells, 24 hours with drug
Text: as §1, §2, §3, §4

[5] = system: lymphoma cell line E.G7; experiment: Cell viability by MTT assay, E.G7; assay type: cell-based; conditions: E.G7 lymphoma cells, 24 hours with drug
Text: as §1, §2, §3, §4

[6] = system: fibroblast cell line L929; experiment: Cell viability by MTT assay, L929; assay type: cell-based; conditions: Mus musculus, L929 fibroblast cells, 24 hours with drug
Text: as §1, §2, §3, §4

[7] = system: human colorectal cancer cell (HT-29) tumors; experiment: Animal assay: HT-29 colorectal tumor growth in nu/nu mouse; assay type: in vivo; conditions: 10 mg/kg tail vein, 2 times per week, HT-29 in nu/nu mouse
Experimental: The mouse is used as a model organism to observe the inhibition growth of TG1 on colorectal cancer tumors.
1) The human colorectal cancer cell (HT-29) is implanted in the back of mouse (nu/nu mouse), and the tumors are grown to about 250 mm^3 for grouping.
2) The mice are divided into 3 groups (untreated group, treatment group TG1 and clinical anticancer drug Irinotecan of treatment group), 8 mice in each group.
3) The treatment group TG1 and Irinotecan are administered at a concentration of 10 mg/kg, and the drug is administered in the tail vein at a frequency of 2 times per week.
4) Observe the tumor volume growth, the tumor volume calculation formula is: length×width×width×0.5.

[8] = system: human colorectal cancer (Caco2, SW480, HCT116); conditions: Saunier et al. 2017; cited from earlier work

IC50 ([1]; Homo sapiens, HCT-116 colorectal cancer cells, MTT assay, 24 hours with drug) | IC50 [2] | IC50 [3] | IC50 [4] | IC50 [5] | SMILES | ability to poison colorectal cancer cells relative to other cells ([1]; colorectal cancer cells versus other cells, from IC50 values of Table 1) | IC50 [6] | mean tumor volume ([7]; 10th day) | average tumor volume ([7]; 15th day) | average tumor volume ([7]; 20th day) | ability to inhibit cancer cells [8]
0.031 µM | 0.056 µM | 190 µM | 63 µM | 180 µM | Oc1ccc(/C=C/c2cc(O)cc(O)c2O)cc1 [TG1, 2,3,5, 4′-tetrahydroxy-trans-stilbene] | 1000-6000 times | 255 µM | 291 mm^3 | 300 mm^3 | 461 mm^3 | –
– | – | – | – | – | Oc1ccc(C=Cc2cc(O)cc(O)c2)cc1 [resveratrol] | – | – | – | – | – | no any ability to inhibit cancer cells
